Legend:
pfDUF512 [1] = biological target: T1, pfDUF512 (Pyrococcus furiosus, UniProt Q8U2I5); experiment: X-ray crystal structure; type: binding; conditions: 5 mM SAH in crystallisation, anoxic, with [4Fe-4S], cobalamin and 5'-dA; poor density for ribosyl and methionyl moieties
T1 construct: gene PF0849; full length, 358 residues (1-357 modelled); E. coli, SUMO tag cut with Ulp1, one extra N-terminal His left; monomer; [4Fe-4S]
T1 sequence (Q8U2I5 1-357): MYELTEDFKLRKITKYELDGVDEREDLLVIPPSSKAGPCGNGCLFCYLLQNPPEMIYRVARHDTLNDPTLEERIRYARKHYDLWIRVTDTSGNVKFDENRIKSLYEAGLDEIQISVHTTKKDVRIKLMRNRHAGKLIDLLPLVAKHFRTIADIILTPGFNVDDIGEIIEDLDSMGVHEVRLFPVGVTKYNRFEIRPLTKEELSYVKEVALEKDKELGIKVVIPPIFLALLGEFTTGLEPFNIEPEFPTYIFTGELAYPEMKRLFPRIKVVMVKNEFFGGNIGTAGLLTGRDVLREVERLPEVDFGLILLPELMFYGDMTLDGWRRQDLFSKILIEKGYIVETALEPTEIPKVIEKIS

pfDUF512 [2] = biological target: T1, pfDUF512; experiment: methylation of bound cobalamin, MeCbl and […]'-dA detected; type: biochemical; conditions: titanium(III) citrate, 5 min
acDUF512 = biological target: T2, acDUF512 (Acinetobacter sp. CAG:196_36_41, UniProt Z9P1A2K5F3); experiment: methylation of bound cobalamin, MeCbl, SAH and […]'-dA quantified; type: biochemical; conditions: titanium(III) citrate, 5 min
T2 construct: full-length gene, E. coli, SUMO tag cut with Ulp1; monomer; FeS cluster
T2 sequence (Z9P1A2K5F3 1-422): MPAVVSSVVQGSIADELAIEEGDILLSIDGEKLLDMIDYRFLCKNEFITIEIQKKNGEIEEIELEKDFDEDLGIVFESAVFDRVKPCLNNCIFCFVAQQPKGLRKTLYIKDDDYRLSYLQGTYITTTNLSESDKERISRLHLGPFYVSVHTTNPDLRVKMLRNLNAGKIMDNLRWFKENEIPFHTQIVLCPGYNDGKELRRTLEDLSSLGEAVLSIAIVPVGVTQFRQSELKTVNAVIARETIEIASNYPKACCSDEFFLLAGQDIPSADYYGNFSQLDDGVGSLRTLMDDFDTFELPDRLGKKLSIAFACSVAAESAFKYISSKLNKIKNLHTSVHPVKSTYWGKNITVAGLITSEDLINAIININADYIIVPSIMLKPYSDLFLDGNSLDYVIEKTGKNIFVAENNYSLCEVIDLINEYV

csDUF512 = biological target: T3, csDUF512 (Clostridium sporogenes, UniProt Z9WP26CAS3); experiment: as above; type: biochemical; conditions: titanium(III) citrate, 5 min
T3 construct: full length, 444 residues (1-443 modelled); E. coli, SUMO tag cut with Ulp1; monomer; [4Fe-4S]; codon-optimized gene
T3 sequence (Z9WP26CAS3 1-443): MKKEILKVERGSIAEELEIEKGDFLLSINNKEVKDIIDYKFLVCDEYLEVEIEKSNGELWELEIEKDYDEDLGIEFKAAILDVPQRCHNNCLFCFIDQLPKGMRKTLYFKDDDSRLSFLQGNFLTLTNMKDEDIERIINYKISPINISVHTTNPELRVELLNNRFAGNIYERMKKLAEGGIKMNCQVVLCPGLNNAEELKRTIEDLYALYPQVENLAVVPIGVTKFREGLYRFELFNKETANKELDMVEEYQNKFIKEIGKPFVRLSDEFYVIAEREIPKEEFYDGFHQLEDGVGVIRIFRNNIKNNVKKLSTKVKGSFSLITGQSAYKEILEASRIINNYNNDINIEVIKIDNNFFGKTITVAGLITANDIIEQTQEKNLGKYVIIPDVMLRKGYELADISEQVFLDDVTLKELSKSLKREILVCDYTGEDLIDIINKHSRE

| Structure (SMILES) | X-ray crystal structure (pfDUF512 [1]) | methylation of bound cobalamin, MeCbl and 5'-dA detected (pfDUF512 [2]) | methylation of bound cobalamin, MeCbl, SAH and 5'-dA quantified (acDUF512) | methylation of bound cobalamin, MeCbl, SAH and 5'-dA quantified (csDUF512) |
| --- | --- | --- | --- | --- |
| Nc1ncnc2c1ncn2[C@@H]1O[C@H](CSCC[C@H](N)C(=O)O)[C@@H](O)[C@H]1O [SAH, S-adenosylhomocysteine] | pfDUF512 was crystallized under anoxic conditions in the presence of SAH |  |  |  |
| C[S+](CC[C@H](N)C(=O)O)C[C@H]1O[C@@H](n2cnc3c(N)ncnc32)[C@H](O)[C@@H]1O (stereo partly shown) [SAM, S-adenosylmethionine] |  | Upon incubating the four DUF512 proteins with SAM and titanium(III) citrate | Upon incubating the four DUF512 proteins with SAM and titanium(III) citrate | Upon incubating the four DUF512 proteins with SAM and titanium(III) citrate |
